In patent US9580398B2, “Compounds, compositions, and methods for modulating ferroptosis and treating excitotoxic disorders” (The Trustees of Columbia University in the City of New York, priority 2012, dated 2017):

Tests used:
[1] = system: SLC7A11 mRNA in HT-1080 cells; assay: SLC7A11 mRNA levels by RT-qPCR; format: cell-based, human
Method: RNA was extracted using the Qiashredder and Qiagen RNeasy Mini kits (Qiagen) according to the manufacturer's protocol. 2 μg total RNA for each sample was used as input for each reverse transcription reaction, performed using the TaqMan RT kit (Applied Biosystems, Life Technologies Corp., Carlsbad, Calif.). Primer pairs were designed for target transcripts using Primer Express 2.0 (Applied Biosystems). Quantitative PCR reactions were performed using the Power SYBR Green PCR Master Mix (Applied Biosystems). Triplicate samples per condition were analyzed on an Applied Biosystems 7300 qPCR instrument using absolute quantification settings. Differences in mRNA levels compared to HPRT1 or ACTB internal reference control were computed between control and experimental conditions using the ΔΔCt method.

HT-1080 cells = assay: Erastin-induced death in HT-1080 cells with co-treated inhibitors (viability, microscopy); format: cell-based, human; details: HT-1080 cells
Method: (§1) Cell viability was typically assessed in 384-well format by Alamar Blue (Invitrogen) fluorescence (ex/em 530/590) measured on a Victor3 platereader (Perkin Elmer, Waltham, Mass.). In some experiments, Trypan Blue dye exclusion counting was performed using an automated cell counter (ViCell, Beckman-Coulter Inc., Brea, Calif.). Cell viability in test conditions is reported as a percentage relative to the negative control treatment.
Phase contrast images were acquired using an AMG EVOS FL (Advanced Microscopy Group) microscope equipped with a 10× phase-contrast objective. Three independent fields were acquired for each experimental condition. Representative samples from one field of view are shown.

BJeLR and HT-1080 cells = assay: Measurement of ATP levels; format: cell-based, human; details: normalized to viability
Method: ATP levels were evaluated using the ApoSENSOR ATP Assay Kit (Biovision Inc., Milpitas, Calif.) according to the manufacturer's instructions. 2000 HT-1080 or BJeLR cells were seeded in 96-well white bottom plates (Falcon). Cells were treated 12 hours later with compound as above for the TEM. Prior to luminescence measurement, medium was removed and cells were lysed and incubated with ATP Monitoring Enzyme. Luminescence was measured using a Victor3 platereader equipped with an infrared emission filter every 30 seconds for 10 minutes. Typically the first reading was used for data analysis. Parallel cell culture treatments were performed in 96-well clear bottom plates and cell viability was determined using Alamar Blue. These values were used to normalize ATP levels to cell viability.

system xc− = target: T1, system xc− (Homo sapiens, UniProt Q9UPY5); assay: [14C]cystine uptake assay (Na+-independent); format: cell-based; details: HT-1080 cells; erastin 10 μM, glutamate 50 mM, SAS 1 mM
T1 construct: endogenous in cells; host or cells: HT-1080 (American Type Culture Collection)
T1 sequence (Q9UPY5 1-501): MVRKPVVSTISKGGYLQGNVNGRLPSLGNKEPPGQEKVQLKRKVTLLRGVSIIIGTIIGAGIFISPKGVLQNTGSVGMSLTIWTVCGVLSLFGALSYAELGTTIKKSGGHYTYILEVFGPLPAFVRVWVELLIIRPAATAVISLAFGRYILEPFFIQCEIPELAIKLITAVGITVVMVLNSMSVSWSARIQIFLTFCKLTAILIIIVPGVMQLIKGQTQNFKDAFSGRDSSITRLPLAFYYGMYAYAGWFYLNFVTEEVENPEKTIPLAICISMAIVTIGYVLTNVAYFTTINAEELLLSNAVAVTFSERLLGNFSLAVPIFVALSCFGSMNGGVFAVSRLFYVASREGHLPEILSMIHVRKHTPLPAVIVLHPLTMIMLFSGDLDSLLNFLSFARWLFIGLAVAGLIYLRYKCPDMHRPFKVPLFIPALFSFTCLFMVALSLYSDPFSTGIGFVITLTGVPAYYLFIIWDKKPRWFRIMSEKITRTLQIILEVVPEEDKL
T1 sequence (P08195 1-529 partner): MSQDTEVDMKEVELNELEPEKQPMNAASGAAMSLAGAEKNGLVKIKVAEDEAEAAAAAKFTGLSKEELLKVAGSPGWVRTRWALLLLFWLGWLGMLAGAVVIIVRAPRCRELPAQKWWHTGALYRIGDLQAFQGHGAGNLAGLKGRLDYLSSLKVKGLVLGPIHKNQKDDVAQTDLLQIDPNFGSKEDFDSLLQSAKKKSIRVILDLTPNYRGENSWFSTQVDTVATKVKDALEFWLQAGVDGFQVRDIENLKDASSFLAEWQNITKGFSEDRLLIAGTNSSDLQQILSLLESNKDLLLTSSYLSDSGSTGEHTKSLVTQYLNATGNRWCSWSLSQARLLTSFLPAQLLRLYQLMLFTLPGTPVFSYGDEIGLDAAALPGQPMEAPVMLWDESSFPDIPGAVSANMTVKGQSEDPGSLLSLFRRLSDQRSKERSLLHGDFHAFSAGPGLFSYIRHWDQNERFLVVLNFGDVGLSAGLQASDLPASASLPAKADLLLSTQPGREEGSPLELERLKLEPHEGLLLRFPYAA
Method: 200,000 HT-1080 cells/well were seeded overnight in 6-well dishes (Corning). […] At this point, in each well the buffer was replaced with 600 μL uptake buffer containing compound and 0.12 μCi (80-110 mCi/mmol) of L-[3,3′-^14C]-cystine (Perkin Elmer) and incubated for 3 minutes at 37° C. Cells were then washed three times with ice-cold uptake buffer and lysed in 500 μL 0.1 M NaOH. To this lysate was added 15 mL of scintillation fluid and radioactive counts per minute were obtained using a scintillation counter. All measurements were performed in triplicate for each condition.

BJeLR cells = assay: Erastin-induced death and ROS production in BJeLR cells; format: cell-based, human; details: erastin 10 μM, 6-AN 200 μM
Method: The day before the experiment, 200,000 cells/well were seeded in 6-well dishes (Corning Inc., Corning, N.Y.). The day of the experiment, cells were treated with test compounds for the indicated times, then harvested by trypsinization, resuspended in 500 μL Hanks Balanced Salt Solution (HBSS, Gibco, Invitrogen Corp., Carlsbad, Calif.) containing either H2DCFDA (25 μM), C11-BODIPY(581/591) (2 μM) or MitoSOX (5 μM) (all from Molecular Probes, Invitrogen) and incubated for 10 minutes at 37° C. in a tissue culture incubator. Cells were then resuspended in 500 μL of fresh HBSS, strained through a […] cell strainer (BD Falcon, BD Biosciences, San Jose, Calif.), and analyzed using a flow cytometer (FACSCalibur or Accuri C6, BD Biosciences), which was equipped with 488-nm laser for excitation. Data was collected from the FL1 (H2DCFDA, C11-BODIPY) or FL2 channel (MitoSOX). A minimum of 10,000 cells were analyzed per condition.
as §1

Calu-1 cells = assay: Erastin-induced ferroptosis in Calu-1 cells with NOX pathway inhibitors; format: cell-based, human
Method: as §1

SMILES | Na+-independent uptake of [14C]cystine (system xc−) | suppression of erastin-induced ferroptosis in Calu-1 (Calu-1 cells) | further results
OCCS [β-ME, β-mercaptoethanol, reference compound] | – | – | effect on erastin/SAS-induced SLC7A11 upregulation [1]: suppressed; inhibition of cell death induced by erastin, SAS and glutamate (HT-1080 cells): strongly inhibited cell death
OO [H2O2] | – | – | intracellular ATP (BJeLR and HT-1080 cells): substantial depletion of intracellular ATP
O=C(O)c1cc(/N=N/c2ccc(S(=O)(=O)Nc3ccccn3)cc2)ccc1O [SAS, sulfasalazine] | abolished | – | –
N[C@@H](CCC(=O)O)C(=O)O [glutamate] | abolished | – | –
COC(=O)c1ccc([C@@H]2c3[nH]c4ccccc4c3C[C@@H](C(=O)OC)N2C(=O)CCl)cc1 [RSL3] | had no effect | – | –
NC(=O)c1ccc(N)nc1 [6-AN, 6-aminonicotinamde] | – | strongly suppressed | cell death and ROS production in erastin-treated BJeLR (BJeLR cells): prevented cell death as well as ROS production
c1ccc2c(c1)[I+]c1ccccc1-2 [DPI, diphenylene iodonium] | – | strongly suppressed | –
CN(C)c1cccc(-c2c3c(=O)n(-c4ccccc4Cl)[nH]c3cc(=O)n2C)c1 [GKT137831] | – | strongly suppressed | –
